Measurements reported in patent US6420363B1, “Mono- or polyenic carboxylic acid derivatives” (Eisai Co., Ltd., priority 1994, dated 2002).

Assays:
[1] = target: T1, all-trans retinoic acid receptors (RAR) (Homo sapiens, UniProt P10276); assay: Receptor binding assay using nuclear extract fraction of human promyelocytic leukemia cell HL60; conditions: inhibition of specific binding of 3H-all-trans retinoic acid, 4° C., 16 hours
T1 construct: determined by the use of the nuclear extract fraction of HL60; endogenous in cells; host or cells: HL60 human promyelocytic leukemia cells, nuclear extract fraction
T1 sequence (P10276 1-462): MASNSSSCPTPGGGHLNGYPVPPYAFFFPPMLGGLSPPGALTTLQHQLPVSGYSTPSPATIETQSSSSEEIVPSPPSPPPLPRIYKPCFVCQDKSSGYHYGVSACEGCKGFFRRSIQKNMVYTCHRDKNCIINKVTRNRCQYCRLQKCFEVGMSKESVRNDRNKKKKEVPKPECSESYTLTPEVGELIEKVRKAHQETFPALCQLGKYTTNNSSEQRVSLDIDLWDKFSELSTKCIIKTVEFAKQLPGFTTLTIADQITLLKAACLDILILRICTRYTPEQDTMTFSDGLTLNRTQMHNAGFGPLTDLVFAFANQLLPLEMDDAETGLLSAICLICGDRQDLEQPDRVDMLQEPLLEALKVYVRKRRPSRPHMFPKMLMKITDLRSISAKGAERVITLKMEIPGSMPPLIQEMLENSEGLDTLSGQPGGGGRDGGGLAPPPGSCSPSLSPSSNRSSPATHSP
Experimental: Receptor Binding Assay Using Human Promyelocytic Leukemia Cell HL60
It is known that all-trans retinoic acid receptors (retinoic acid receptor: RAR) are is present in the nuclei of HL60 cells (Clara Nervi et al., Proc. Natl. Acad. Sci. U.S.A. 86, 5854(1989)). Therefore, the specific binding of all-trans retinoic acid for RAR was determined by the use of the nuclear extract fraction of HL60, and each test compound was examined for the ability to bind RAR by determining the inhibition against the specific binding.
The nuclear extract fraction was prepared as follows.
HL60 cells (5×10^8) were suspended in 15 ml of solution A (sodium phosphate (pH7.4): 5 mM, monothioglycerol: 10 mM, glycerol: 10% (v/v), phenylmethylsulfonyl fluoride (PMSF): 1 mM, aprotinin: 10 μg/ml, and leupeptin: 25 μg/ml). The obtained suspension was homogenized by the use of a homogenizer and centrifuged to remove the resulting supernatant. The sediment thus formed was suspended in 15 ml of solution B (Tris-HCl(pH8.5): 10 mM, monothioglycerol: 10 mM, glycerol: 10% (v/v), PMSF: 1 mM, aprotinin: 10 μg/ml, leupeptin: 25 μg/ml, and KCl: 0.8 M). The obtained suspension was allowed to stand at 4° C. for one hour, and subjected to ultracentrifugation (100,000×g, 4° C., 1 hr). The obtained supernatant was stored as the nuclear extract fraction in a frozen state at −80° C. until the use (METHODS IN ENZYMOLOGY, 189, 248).
The receptor binding assay was conducted as follows.
180 μl of the above fraction and 10 μl of a dilution of all-trans retinoic acid or a test compound were added to each well of a 96-well plate made of polypropylene, followed by the addition of 10 μl of 10 nM^3H-all-trans retinoic acid. The resulting plate was allowed to stand at 4° C. for 16 hours. A solution containing 3% of charcoal and 0.3% of dextran was added to the resulting reaction mixture. The mixture thus obtained was centrifuged to remove free ^3H-all-trans retinoic acid. The radioactivity of the resulting supernatant was determined by the use of a scintillation counter. The specific binding of ^3H-all-trans retinoic acid for RAR was determined by assuming the radioactivity found when 200 times as much all-trans retinoic acid was added to be the non-specific binding and subtracting it from the radioactivity determined above. The compounds which will be described below inhibited the binding of ^3H-all-trans retinoic acid dependently on the concentration.

[2] = tested on: HL60 cells; assay: Antagonism against all-trans retinoic acid in inducing the differentiation of HL60 cells (CD11b-positive cells, flow cytometry); assay type: cell-based; conditions: Homo sapiens, HL-60, 120 h; CD11b-positive cells induced by 10 nM all-trans retinoic acid, 5 days
Text: Antagonism Against All-trans Retinoic Acid in Inducing the Differentiation of HL60 Cells
It is known that human promyelocytic leukemia cells HL60 differentiate into granulocyte-like cells in the presence of all-trans retinoic acid (Breitman, T., Selonick, S., and Collins, S., Proc. Natl. Acad. Sci. U.S.A. 77, 2936(1980)). In general, cells allow specific differentiation antigens to be expressed on the cell surfaces when they have achieved differentiation. When HL60 cells differentiate into granulocyte-like cells, CD11b which is a granulocyte/monocyte discriminating antigen is expressed on the cell surfaces (Fontana, J A., Reppuci, A., Durham, J P., and Mirand, D., Cancer Res. 46, 2469-2473 (1986)). The antagonism of a test compound against the differentiation into granulocyte-like cells induced by all-trans retinoic acid was studied by utilizing this phenomenon.
HL60 cells were cultured and maintained in a medium prepared by adding 10% of inactivated fetal bovine serum, 1 mM of sodium pyridinecarboxylate, 50 μM of β-mercaptoethanol, 100 IU/ml of penicillin and 100 μg/ml of streptomycin to RPMI1640 (culture medium formulated by Rosewell Park Memorial Institute).
An HL60 cell suspension (1×10^5 cells/ml) was put in a 48-well plate in an amount of one ml per unit well, followed by the addition of all-trans retinoic acid in a concentration of […] and a retinoid antagonist in various concentrations. The resulting mixtures were cultured in a 5% CO2-air incubator for 5 days. After the completion of the culture, the cells in each well was recovered into a test tube, followed by the addition of an FITC-labeled monoclonal antibody against CD11b (which is a specific antigen against glanulocytes and monocytes). The resulting cell suspension was fixed with 0.2% paraformaldehyde. The fixed cell suspension thus obtained was examined for the content of CD11b-positive cells in the HL60 cell population of each well by flow cytometry (Miller, L. J., Schwarting, R., and Springer, T A., J. Immunol. 137, 2891-2900 (1986)). The compounds which will be described below lowered the content of CD11b-positive cells induced by 10 nM all-trans retinoic acid dependently on the concentration.

IC50 [1] [µM] | IC50 [2] [µM] | melting point [°C] | SMILES
> 0.05 | 0.88 |  | CC(/C=C/C(F)=C(/C)c1ccc2c(c1)C(C)CCN2C(C)C)=C\C(=O)O (stereo not shown) [Example 9, (E,E,E)-7-[1-(1-Methylethyl)-4-methyl-1,2,3,4-tetrahydroquinolin-6-yl]-6-fluoro-3-methyl-octa-2,4,6-trienoic acid]
0.017 | 0.47 |  | COC(=O)/C=C(C)/C=C/C(F)=C(/C)c1ccc2c(c1)C(C)CCN2C(C)C (stereo not shown) [Example 8, Methyl (E,E,E)-7-[1-(1-methylethyl)-4-methyl-1,2,3,4-tetrahydroquinolin-6-yl]-6-fluoro-3-methyl-octa-2,4,6-trienoate]
0.02 | 0.074 |  | CC(/C=C/C(C)=C/c1ccc2c(c1)CCCN2C(C)C)=C\C(=O)O [Example 4, (E,E,E)-7-[1-(1-methylethyl)-1,2,3,4-tetrahydroquinolin-6-yl]-3,6-dimethyl-hepta-2,4,6-trienoic acid]
0.013 | 0.13 |  | COC(=O)/C=C(C)/C=C/C(F)=C(/C)c1ccc2c(c1)CC(C)CN2C(C)C (stereo not shown) [Example 14, Methyl (E,E,E)-7-[1-(1-methylethyl)-3-methyl-1,2,3,4-tetrahydroquinolin-6-yl]-6-fluoro-3-methyl-octa-2,4,6-trienoate]
0.0125 | 0.029 |  | CCOC(=O)/C(F)=C(/C)c1ccc2c(c1)CC(C)CN2C(C)C (stereo not shown) [Example 13, Ethyl (E)-3-[1-(1-methylethyl)-3-methyl-1,2,3,4-tetrahydroquinolin-6-yl]-2-fluoro-2-butenoate]
0.0054 | 0.039 |  | CC(/C=C/C(F)=C(/C)c1ccc2c(c1)CCCN2C(C)C)=C\C(=O)O [Example 5, (E,E,E)-7-[1-(1-methylethyl)-1,2,3,4-tetrahydroquinolin-6-yl]-6-fluoro-3-methyl-octa-2,4,6-trienoic acid]
 |  | 289 to 290 | CC1(C)CCC(C)(C)c2c1sc1c2-c2c(c(-c3ccc(C(=O)O)cc3)cn2Cc2cccnc2)CC1 [Example 210]
